Measured values taken from paper PMC3384297 (2012).

Assays:
Test in all cases: FRET melting
[1] = tested on: F21D (DNA, G4) GGGTTAGGGTTAGGGTTAGGG; settings: 5 mM K+, 95 mM Li+; 10 mM lithium cacodylate pH 7.2; 0.2 µM DNA, 1 µM porphyrin
[2] = tested on: FGD (DNA, G4) GGGTGTGGGTGTGGGTGTGGG; settings: 5 mM K+, 95 mM Li+; 10 mM lithium cacodylate pH 7.2; 0.2 µM DNA, 1 µM porphyrin
[3] = tested on: FGD (DNA, G4) GGGTGTGGGTGTGGGTGTGGG; settings: 5 mM K+, 95 mM Li+; 10 mM Li cacodylate pH 7.2; 0.2 µM DNA, 1 µM NMM
[4] = tested on: F21D (DNA, G4) GGGTTAGGGTTAGGGTTAGGG; settings: 5 mM K+, 95 mM Li+; 10 mM Li cacodylate pH 7.2; 0.2 µM DNA, 1 µM NMM

| SMILES | ΔT1/2 [1] [°C] | ΔT1/2 [2] [°C] | ΔT1/2 [3] [°C] | ΔT1/2 [4] [°C] |
| --- | --- | --- | --- | --- |
| C=CC1=C(C)c2cc3[nH]c(cc4nc(cc5[nH]c(cc1n2)c(C)c5CCC(=O)O)C(CCC(=O)O)=C4C)c(C)c3C=C | 0.2 ± 0.3 | 0.2 ± 0.3 |  |  |
| C=Cc1c(C)c2cc3c(C=C)c(C)c(cc4nc(cc5nc(cc1[nH]2)C(C)=C5CCC(=O)O)C(CCC(=O)O)=C4C)n3C | 8.5 ± 0.6 | 9.8 ± 0.3 |  |  |
| CCc1c(C)c2cc3nc(cc4nc(cc5c(CC)c(C)c(cc1[nH]2)n5C)C(C)=C4CCC(=O)O)C(CCC(=O)O)=C3C |  |  | 12.5 ± 0.3 | 14 ± 2 |

Other lines, results leading:

| ΔT1/2 [1] [°C] | ΔT1/2 [2] [°C] | ΔT1/2 [3] [°C] | ΔT1/2 [4] [°C] | SMILES |
| --- | --- | --- | --- | --- |
| 0.2 ± 0.3 | 0.8 ± 0.3 |  |  | CCC1=C(C)c2cc3[nH]c(cc4nc(cc5[nH]c(cc1n2)c(C)c5CC)C(C)=C4CCC(=O)O)c(CCC(=O)O)c3C |
| 23 ± 1 | 22.1 ± 0.9 |  |  | C[n+]1ccc(-c2c3nc(c(-c4cc[n+](C)cc4)c4ccc([n-]4)c(-c4cc[n+](C)cc4)c4nc(c(-c5cc[n+](C)cc5)c5ccc2[n-]5)C=C4)C=C3)cc1.[Zn+2] |
| 34 ± 2 | 31 ± 2 |  |  | C[n+]1ccc(-c2c3nc(c(-c4cc[n+](C)cc4)c4ccc([nH]4)c(-c4cc[n+](C)cc4)c4nc(c(-c5cc[n+](C)cc5)c5ccc2[nH]5)C=C4)C=C3)cc1 |
